Results on two compounds are retold here after article PMC8566451, “Lead optimization of novel quinolone chalcone compounds by a structure–activity relationship (SAR) study to increase efficacy and metabolic stability” (Scientific Reports, 2021).

Where two headings read alike, the source gives them in different places.

The target of series [1] is tubulin (colchicine binding site) (Sus scrofa, UniProt P02550+P02554). The experiment in a line: Colchicine binding site competition assay (fluorescence of tubulin-colchicine complex, modified Dixon plot). As to conditions: for Ki / mode of inhibition of colchicine binding: modified Dixon plot; for mode of inhibition of colchicine binding: trendlines intersect above the X-axis. The protocol: (a) CTR-21 and CTR-32 inhibit microtubule polymerization in vitro. Spontaneous polymerization of 20 µM porcine tubulin was initiated with the addition of 1 mmol/L GTP at 37 °C and monitored every minute for 60 min in the presence of the indicated concentration of CTR-21, CTR-32, nocodazole, paclitaxel, or a DMSO vehicle control. To make the graph simpler, only 3 µM concentration is shown. The effects of higher doses are shown in Supplemental Fig. S9. […] Fluorescent intensity was compared to the fluorescence of the tubulin-colchicine complex in absence of CTR-21 or CTR-32 (F0). […] A modified Dixon plot was used to determine the inhibitory concentration of CTR-21 and CTR-32 (Ki).
When we added either CTR-21 or CTR-32 to the colchicine-tubulin complex, we observed a reduction in fluorescence in a dose -dependent manner (Fig. 2b).
Microtubule assembly was assessed using a Tubulin Polymerization assay kit (BK011P; Cytoskeleton Inc., Denver, CO). 20 µM of purified porcine tubulin proteins (> 99% purity) were suspended in G-PEM buffer containing 80 mM PIPES, 2 mM MgCl2, 0.5 mM EGTA, 1 mM GTP (pH 6.9) and 20% glycerol. Polymerization was started by incubating at 37 °C and followed by absorbance readings every 1 min at 340 nm for 1 h using a Synergy H4 plate reader.

Series [2] is described as follows: Microsome metabolism assay. Type of series: in vitro ADME, human. Particulars: for half-life at 5 µM: human microsomes (20 mg/ml protein), NADPH, 120 min. Here is the method: (a) CTR-21 is much more metabolically stable than CTR-32. 5 µM of CTR-21 or CTR-32 were incubated with human microsomes (20 mg/ml protein) in the presence of NADPH over the course of 120 min. The lysates were analyzed and % remaining CTR compounds were identified and estimated using HPLC–MS. (b) Summary of structure–activity relationship (SAR) based on activity and metabolic stability.
Microsome metabolism assay was carried out as per manufacturer protocol (ThermoFisher), with 5 µM of starting compound. Analytes were measured on a Waters Xevo G2-XS Quadrupole Time-of-Flight mass spectrometer. Half-life was calculated using exponential one phase decay (GraphPad Prism 5). Hydroxychloroquine was used as an internal standard (500 pg/µL).

In series [3] the test system is HeLa. Description: Sulforhodamine B (SRB) assay. Type of series: cell-based. As to conditions: Homo sapiens; for IC50: HeLa, Supplementary Table S1, SRB; for GI50: HeLa cervical cancer cells, 48 h, SRB. The protocol: (§1) The human MDA-MB-231, MCF7, MDA-MB-468, RPMI-8226 and HeLa cell lines were purchased from ATCC and maintained in Dulbecco's Modified Eagle Medium (DMEM)—high glucose supplemented with 10% fetal bovine serum (FBS) and antibiotics/antimycotics. Cell line authentication was carried out by Genetica DNA Laboratories (Burlington, NC) using a short tandem repeat (STR) profiling method (March 2015; July 2015; September 2016). Melanoma cells E-055 (MZ-Mel-3), E-097 (Mel-SOE), E-112 (UKRV-Mel-38), E-157 (UKRV-Mel-17) were obtained from the European Searchable Tumour Line Database (ESTDAB) cell bank (a kind gift of Dr. Graham Pawelec, Tubingen University, Germany). MDA-MB-435 was purchased from the Division of Cancer Treatment and Diagnosis Tumor Repository. All melanoma cells were cultured in Roswell Park Memorial Institute (RPMI) medium supplemented with 10% FBS and P/S/antimycotics. Primary human epidermal melanocytes from normal adult abdominal skin were purchased from ATCC (cat # PCS-200–013) and Cell Applications (cat#104-05a). The melanocytes were cultured in the media supplied by the companies.
(§2) The SRB assay was used to assess drug-induced cytotoxicity and cell proliferation as previously described[2],[33],[34] with a few modifications. Briefly, cells were plated 10,000 to 25,000 cells/cm^2 in 96-well plates (100 µl medium) and allowed to adhere overnight. The cell counts were different for each cell line to ensure optimal cell growth for the duration of the assay. Eight different concentrations of compound solutions using 2–4 times serial dilutions (100 µl). Cells were then incubated for an additional 48 h and then fixed with 100 µl ice-cold 10% (w/v) trichloroacetic acid (TCA) (without removing the cell medium, final concentration, 3.3% of TCA) and stained with 0.4% SRB (w/v) in 1% acetic acid (v/v). The relative growth rate (%) was calculated for each of the compound concentrations according to the following formula: 100 * (T − T0)/(C − T0), in which T is the optical density (OD) after exposure to a certain concentration of the compound after 48 h, T0 is the OD at the start of drug exposure (time zero) and C is the control growth. The GI50 for each compound was obtained from a non-linear sigmoidal dose–response (variable slope) curve fitted by GraphPad Prism v.4.03 software.
On the technique in general: The SRB assay estimates cell density from bound dye.

Series [4] has as its system UKRV-Mel-17. Description: Sulforhodamine B (SRB) assay. As to conditions: UKRV-Mel-17 melanoma cells, 48 h. Type of series: cell-based. Here is the method:
as §1, §2

The subject of series [5] is MDA-MB231. Description: Sulforhodamine B (SRB) assay. The series is classed as cell-based. Particulars: Homo sapiens, MDA-MB-231; for GI50: MDA-MB231 breast cancer cells, 48 h, SRB; for IC50: Supplementary Table S1, SRB. Here is the method: as §1, §2
In series [6] the test system is MCF7. Description: Sulforhodamine B (SRB) assay. The series is classed as cell-based. Particulars: Homo sapiens; for IC50: MCF7, Supplementary Table S1, SRB; for GI50: MCF7 breast cancer cells, 48 h, SRB. The protocol: as §1, §2
For series [7], the system named is cancer cell lines (breast cancer, melanoma, cervical cancer). The experiment in a line: SRB assay, average GI50 over cancer cell lines. Type of series: cell-based. As to conditions: for fold decrease in GI50 relative to CTR-17: average GI50 compared with CTR-17. Here is the method: as §2
The target in series [8] is T1, porcine tubulin (Sus scrofa, UniProt P02550+P02554).
T1 construct: purchased Cytoskeleton Inc., Denver, CO BK011P
Description: In vitro tubulin polymerization assay. As to conditions: 20 µM porcine tubulin; for effect on tubulin polymerization: 3 µM compound, 37 °C, 60 min; for effect on tubulin polymerization at higher concentrations: 10, 15 and 20 µM compound. The series is classed as biochemical. Here is the method:
Spontaneous polymerization of 20 µM porcine tubulin was initiated with the addition of 1 mmol/L GTP at 37 °C and monitored every minute for 60 min in the presence of the indicated concentration of CTR-21, CTR-32, nocodazole, paclitaxel, or a DMSO vehicle control. To make the graph simpler, only 3 µM concentration is shown. […] A modified Dixon plot was used to determine the inhibitory concentration of CTR-21 and CTR-32 (Ki).
Microtubule assembly was assessed using a Tubulin Polymerization assay kit (BK011P; Cytoskeleton Inc., Denver, CO). […] Polymerization was started by incubating at 37 °C and followed by absorbance readings every 1 min at 340 nm for 1 h using a Synergy H4 plate reader.

The subject of series [9] is primary human epidermal melanocytes. Description: GI50 on primary skin cells. As to conditions: for GI50: Homo sapiens, Melanocyte, primary skin cells; for Selectivity Index (primary skin cells): primary melanocytes versus average GI50 of cancer cells. The series is classed as cell-based. The protocol: as §1, §2
Setting [10] is: Table 1 and Supplemental Table S1 cell lines, read-out: GI50 range over the cancer cell lines.
[11] abbreviates: average over the cell lines of Table 1 or Supplemental Table S1, read-out: average GI50.
[12] abbreviates: Melanocytes #1, read-out: GI50 Melanocytes #1.
The mark [13] stands for this setting: Melanocytes #2, read-out: GI50 Melanocytes #2.

As to `COc1ccccc1C(=O)/C=C/c1cc2cccc(OC)c2[nH]c1=O` [CTR-21, (E)-8-methoxy-3-(3-(2-methoxyphenyl)-3-oxoprop-1-enyl) quinolin-2(1H)-one], the “strength of inhibition relative to CTR-32 (Ki ratio)” value in [1] (CTR-21 versus CTR-32) is reported as “about 4.9 times”. In addition, the inhibition constant Ki (as a rule, a dissociation constant, usually derived from enzyme kinetics or from competition with a known ligand) in series [1] was determined as 1.47 µM. Moreover, the “mode of inhibition of colchicine binding” value in series [1] is “competitive inhibitors”. Besides, the half-life (usually the time in which the quantity being followed falls by half) at 5 µM in series [2] amounted to 65.2 min. Further, the “half-life relative to CTR-32” value in series [2] (human microsomes) is listed as “almost five times greater”. Moreover, the values for the IC50 in series [3], in series [5] and in series [6] were 11.9 ± 1.4 nM, 56.9 ± 10.5 nM and 75.1 ± 3.07 nM, respectively. Besides, the GI50 (commonly the concentration at which growth is held to half of that of the control) is 8 ± 3 nM in series [3]; 9 ± 2 nM in series [4]; 17 ± 3 nM in [5]; 16 ± 5 nM in [6]; 5 to 91 nM in series [7] (setting [10]); 16.4 nM in series [7] (setting [11]). Further, the values for the GI50 in [9] (setting [12]) and in series [9] (setting [13]) were 2090 ± 804 nM and 3050 ± 960 nM, respectively. Further, the “SI, cancer over normal cells” value in [7] is listed as over 100 fold. Further, the “enhancement of potency over CTR-17 and CTR-20” value in series [7] is reported as ~ 30 fold. Also, in series [7], the “fold decrease in GI50 relative to CTR-17” value is reported as 31 fold. The “effect on tubulin polymerization” value in series [8] is listed as “reduced steady-state”. Further, the “effect on tubulin polymerization at higher concentrations” value in [8] was “did not appreciably increase the inhibition of tubulin dynamics”. The “Selectivity Index (primary skin cells)” value in [9] came to 157.
As to `CCOc1ccccc1C(=O)/C=C/c1cc2ccccc2[nH]c1=O` [CTR-32, (E)-3-(3-(2-ethoxyphenyl)-3-oxoprop-1-enyl)quinolin-2(1H)-one], the Ki in [1] stood at 7.2 µM. The “mode of inhibition of colchicine binding” value in series [1] was “competitive inhibitors”. Moreover, in series [2], the half-life at 5 µM was found to be 13.7 min. Moreover, the IC50 (in general, the midpoint of a concentration-inhibition curve) turned out to be 12.9 ± 0.35 nM in series [3], 44.2 ± 4.21 nM in [5] and 46.4 ± 3.61 nM in series [6]. Besides, the GI50 in series [3] was 11 ± 2 nM; in series [4], 18 ± 3 nM; in [5], 20 ± 2 nM; in series [6], 27 ± 6 nM; in [7] (setting [10]), 5 to 91 nM; in series [7] (setting [11]) it was 20 nM. Further, the values for the GI50 in series [9] (setting [12]) and in [9] (setting [13]) were 2630 ± 782 nM and 3630 ± 1080 nM, respectively. In addition, the “fold decrease in GI50 relative to CTR-17” value in [7] stood at 23 fold. For the same compound, the “effect on tubulin polymerization” value in series [8] is listed as “does not affect the steady state dynamics or Vmax of tubulin polymerization”. Besides, in series [8], the “effect on tubulin polymerization at higher concentrations” value is “almost completely inhibited the formation of microtubule polymers”. In series [9], the “Selectivity Index (primary skin cells)” value turned out to be 158.
